From patent US20230085307A1, “PYRIDAZINONE COMPOUND AND HERBICIDE” (NISSAN CHEMICAL CORPORATION, priority 2019, published 2023)

Key:
Japanese bulrush = assay: Test Example 1: herbicidal activity, application before weed generation under submerged conditions (Table 16, symbol B); format: in vivo, Japanese bulrush (Schoenoplectus juncoides); conditions: 320 g/ha applied herbicide
How it was run: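 Alluvial soil was flooded to 4 cm depth, weed seeds were sown mixed and 2.5-leaf rice seedlings were transplanted. On sowing day, the compound's emulsion, diluted in water to a set dose, was applied to the water surface. Plants grew at 25–30 °C and were scored 0–5 after three weeks.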

late watergrass = assay: Test Example 2: herbicidal activity, application during weed generation under submerged conditions (Table 17, symbol A); format: in vivo, late watergrass (Echinochloa oryzicola); conditions: AAH 320 g/ha; application during weed generation, submerged conditions
How it was run: (§1)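 Alluvial soil in Wagner pots was flooded to 4 cm depth and sown with the three weeds together; pots were kept in a greenhouse at 25° C. to 30° C. At the one to two leaf stage, an emulsion formulation diluted in water to a set rate went onto the water surface; scored three weeks later.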

oval-leafed pondweed = assay: Test Example 2: herbicidal activity, application during weed generation under submerged conditions (Table 17, symbol C); format: in vivo, oval-leafed pondweed (Monochoria vaginalis); conditions: AAH 320 g/ha; application during weed generation, submerged conditions
How it was run: as §1

Chinese sprangletop = assay: Test Example 3: herbicidal effect by foliage application, Wagner pot (Table 18, symbol D); format: in vivo, chinese sprangletop (Leptochloa chinensis); conditions: for herbicidal effect on D (Chinese sprangletop), rating 0-5: 320 g/ha; for herbicidal effect on D: Chinese sprangletop: amount of applied herbicide 320 g/ha
How it was run: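 Plants were sown in alluvial soil held under 0.1–0.5 cm standing water and grown 14 days in a greenhouse at 25–30 °C. An emulsifiable formulation, water-diluted to the set dose, was then sprayed onto the foliage, and effects were scored three weeks later using previously defined criteria.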

southern crabgrass = assay: Test Example 4: herbicidal effect by soil treatment (Table 19, symbol F); format: in vivo, southern crabgrass (Digitaria ciliaris); conditions: for herbicidal effect on F: southern crabgrass: amount of applied herbicide 320 g/ha; for herbicidal effect rating, F: southern crabgrass: 320 g/ha
How it was run: (§2)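 In this soil treatment, the formulated compound reached the seeds only through the soil: seeds were buried about 1.5 cm deep in sterilized diluvial soil, then the diluted emulsion was sprayed over the surface. After three weeks at 25° C. to 30° C. in a greenhouse, effects were graded on criteria from an earlier test.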

wild oat [1] = assay: Test Example 4: herbicidal effect by soil treatment (Table 19, symbol I); format: in vivo, wild oat (Avena fatua); conditions: for herbicidal effect on I: wild oat: amount of applied herbicide 320 g/ha; for herbicidal effect rating, I: wild oat: 320 g/ha
How it was run: as §2

blackgrass = assay: Test Example 4: herbicidal effect by soil treatment (Table 19, symbol J); format: in vivo, blackgrass (Alopecurus myosuroides); conditions: for herbicidal effect on J: blackgrass: amount of applied herbicide 320 g/ha; for herbicidal effect rating, J: blackgrass: 320 g/ha
How it was run: as §2

Italian ryegrass = assay: Test Example 4: herbicidal effect by soil treatment (Table 19, symbol K); format: in vivo, Italian ryegrass (Lolium multiflorum); conditions: for herbicidal effect on K: Italian ryegrass: amount of applied herbicide 320 g/ha; for herbicidal effect rating, K: Italian ryegrass: 320 g/ha
How it was run: as §2

windgrass [2] = assay: Test Example 4: herbicidal effect by soil treatment (Table 19, symbol L); format: in vivo, windgrass (Apera spica-venti); conditions: for herbicidal effect on L: windgrass: amount of applied herbicide 320 g/ha; for herbicidal effect rating, L: windgrass: 320 g/ha
How it was run: as §2

lambsquarters [3] = assay: Test Example 4: herbicidal effect by soil treatment (Table 19, symbol O); format: in vivo, lambsquarters (Chenopodium album); conditions: for herbicidal effect on O: lambsquarters: amount of applied herbicide 320 g/ha; for herbicidal effect rating, O: lambsquarters: 320 g/ha
How it was run: as §2

persian speedwell [4] = assay: Test Example 4: herbicidal effect by soil treatment (Table 19, symbol R); format: in vivo, Persian speedwell (Veronica persica); conditions: for herbicidal effect on R: persian speedwell: amount of applied herbicide 320 g/ha; for herbicidal effect rating, R: persian speedwell: 320 g/ha
How it was run: as §2

barnyard grass = assay: Test Example 5: herbicidal effect by foliage application, plastic box (Table 20, symbol H); format: in vivo, barnyard grass (Echinochloa crus-galli); conditions: foliage application; for effect on barnyard grass (H): 3 weeks after application
How it was run: (§3)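 Plants were sown into sterilized diluvial soil under about 1.5 cm cover and kept in a greenhouse at 25° C. to 30° C. Fourteen days on, foliage received an even spray of the diluted emulsion. Herbicidal or crop effect was judged three weeks afterwards.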

wild oat [5] = assay: Test Example 5: herbicidal effect by foliage application, plastic box (Table 20, symbol I); format: in vivo, wild oat (Avena fatua); conditions: foliage application; for effect on wild oat (I): 3 weeks after application
How it was run: as §3

windgrass [6] = assay: Test Example 5: herbicidal effect by foliage application, plastic box (Table 20, symbol L); format: in vivo, windgrass (Apera spica-venti); conditions: foliage application; for effect on windgrass (L): 3 weeks after application
How it was run: as §3

velvetleaf = assay: Test Example 5: herbicidal effect by foliage application, plastic box (Table 20, symbol M); format: in vivo, velvetleaf (Abutilon theophrasti); conditions: foliage application; for effect on velvetleaf (M): 3 weeks after application
How it was run: as §3

lambsquarters [7] = assay: Test Example 5: herbicidal effect by foliage application, plastic box (Table 20, symbol O); format: in vivo, lambsquarters (Chenopodium album); conditions: foliage application; for effect on lambsquarters (O): 3 weeks after application
How it was run: as §3

persian speedwell [8] = assay: Test Example 5: herbicidal effect by foliage application, plastic box (Table 20, symbol R); format: in vivo, Persian speedwell (Veronica persica); conditions: foliage application; for effect on persian speedwell (R): 3 weeks after application
How it was run: as §3

[9] = AAH 320 g/ha, three weeks after application
[10] = AAH 320 g/ha, evaluated three weeks after application
[11] = 320 g/ha, evaluated three weeks after application

Compound	Herbicidal effect on B: Japanese bulrush (grade 0-5) (Japanese bulrush)	herbicidal effect rating, A: late watergrass (late watergrass)	herbicidal effect rating, C: oval-leafed pondweed (oval-leafed pondweed)	herbicidal effect on D (Chinese sprangletop), rating 0-5 (Chinese sprangletop)	herbicidal effect on D: Chinese sprangletop (Chinese sprangletop)	herbicidal effect on F: southern crabgrass (southern crabgrass)	herbicidal effect on I: wild oat (wild oat [1])	herbicidal effect on J: blackgrass (blackgrass)	herbicidal effect on K: Italian ryegrass (Italian ryegrass)	herbicidal effect on L: windgrass (windgrass [2])	herbicidal effect on O: lambsquarters (lambsquarters [3])	herbicidal effect on R: persian speedwell (persian speedwell [4])	herbicidal effect rating, F: southern crabgrass (southern crabgrass)	herbicidal effect rating, I: wild oat (wild oat [1])	herbicidal effect rating, J: blackgrass (blackgrass)	herbicidal effect rating, K: Italian ryegrass (Italian ryegrass)	herbicidal effect rating, L: windgrass (windgrass [2])	herbicidal effect rating, O: lambsquarters (lambsquarters [3])	herbicidal effect rating, R: persian speedwell (persian speedwell [4])	effect on barnyard grass (H) (barnyard grass; 320 g/ha)	other results
C#CCOc1ccc(-c2sc3ccccc3c2-c2c(O)c(C)nn(C)c2=O)cc1 [1-136]	2 (Herbicidal rate of 20% or more and less than 40%)	0 (Herbicidal rate of 5% or less (almost no effect))	0 (Herbicidal rate of 5% or less (almost no effect))	4 (Herbicidal rate of 70% or more and less than 90%)	–	–	–	–	–	–	–	–	–	–	–	–	–	–	–	–	F: southern crabgrass, herbicidal effect rating (southern crabgrass; AAH 320 g/ha): 2 (Herbicidal rate of 20% or more and less than 40%); I: wild oat, herbicidal effect rating (wild oat [1]; AAH 320 g/ha): 0 (Herbicidal rate of 5% or less (almost no effect)); J: blackgrass, herbicidal effect rating (blackgrass; AAH 320 g/ha): 0 (Herbicidal rate of 5% or less (almost no effect)); K: Italian ryegrass, herbicidal effect rating (Italian ryegrass; AAH 320 g/ha): 5 (Herbicidal rate of 90% or more (almost completely withered)); L: windgrass, herbicidal effect rating (windgrass [2]; AAH 320 g/ha): 0 (Herbicidal rate of 5% or less (almost no effect)); O: lambsquarters, herbicidal effect rating (lambsquarters [3]; AAH 320 g/ha): 5 (Herbicidal rate of 90% or more (almost completely withered)); R: persian speedwell, herbicidal effect rating (persian speedwell [4]; AAH 320 g/ha): 4 (Herbicidal rate of 70% or more and less than 90%); H: barnyard grass, herbicidal effect (barnyard grass; [9]): 4 (Herbicidal rate of 70% or more and less than 90%); I: wild oat, herbicidal effect (wild oat [5]; [9]): 0 (Herbicidal rate of 5% or less (almost no effect)); L: windgrass, herbicidal effect (windgrass [6]; [9]): 5 (Herbicidal rate of 90% or more (almost completely withered)); M: velvetleaf, herbicidal effect (velvetleaf; [9]): 4 (Herbicidal rate of 70% or more and less than 90%); O: lambsquarters, herbicidal effect (lambsquarters [7]; [9]): 4 (Herbicidal rate of 70% or more and less than 90%); R: persian speedwell, herbicidal effect (persian speedwell [8]; [9]): 5 (Herbicidal rate of 90% or more (almost completely withered))
Cc1nn(C)c(=O)c(-c2c(-c3ccc(C#N)cc3)sc3ccc(F)cc23)c1O [2-340]	5 (Herbicidal rate of 90% or more (almost completely withered))	5 (Herbicidal rate of 90% or more (almost completely withered))	3 (Herbicidal rate of 40% or more and less than 70%)	–	5 (Herbicidal rate of 90% or more (almost completely withered))	5 (Herbicidal rate of 90% or more (almost completely withered))	3 (Herbicidal rate of 40% or more and less than 70%)	3 (Herbicidal rate of 40% or more and less than 70%)	5 (Herbicidal rate of 90% or more (almost completely withered))	4 (Herbicidal rate of 70% or more and less than 90%)	5 (Herbicidal rate of 90% or more (almost completely withered))	5 (Herbicidal rate of 90% or more (almost completely withered))	–	–	–	–	–	–	–	–	H: barnyard grass, herbicidal effect (criteria 0-5) (barnyard grass; [10]): 5 (Herbicidal rate of 90% or more (almost completely withered)); I: wild oat, herbicidal effect (criteria 0-5) (wild oat [5]; [10]): 5 (Herbicidal rate of 90% or more (almost completely withered)); L: windgrass, herbicidal effect (criteria 0-5) (windgrass [6]; [10]): 4 (Herbicidal rate of 70% or more and less than 90%); M: velvetleaf, herbicidal effect (criteria 0-5) (velvetleaf; [10]): 5 (Herbicidal rate of 90% or more (almost completely withered)); O: lambsquarters, herbicidal effect (criteria 0-5) (lambsquarters [7]; [10]): 5 (Herbicidal rate of 90% or more (almost completely withered)); R: persian speedwell, herbicidal effect (criteria 0-5) (persian speedwell [8]; [10]): 5 (Herbicidal rate of 90% or more (almost completely withered))
CCCCOc1ccc(-c2sc3ccc(F)cc3c2-c2c(OC(=O)CCC)c(C)nn(C)c2=O)cc1 [2-037]	2 (Herbicidal rate of 20% or more and less than 40%)	0 (Herbicidal rate of 5% or less (almost no effect))	3 (Herbicidal rate of 40% or more and less than 70%)	2 (Herbicidal rate of 20% or more and less than 40%)	–	–	–	–	–	–	–	–	2 (Herbicidal rate of 20% or more and less than 40%)	0 (Herbicidal rate of 5% or less (almost no effect))	0 (Herbicidal rate of 5% or less (almost no effect))	0 (Herbicidal rate of 5% or less (almost no effect))	0 (Herbicidal rate of 5% or less (almost no effect))	2 (Herbicidal rate of 20% or more and less than 40%)	3 (Herbicidal rate of 40% or more and less than 70%)	2 (Herbicidal rate of 20% or more and less than 40%)	effect on wild oat (I) (wild oat [5]; 320 g/ha): 0 (Herbicidal rate of 5% or less (almost no effect)); effect on windgrass (L) (windgrass [6]; 320 g/ha): 0 (Herbicidal rate of 5% or less (almost no effect)); effect on velvetleaf (M) (velvetleaf; 320 g/ha): 5 (Herbicidal rate of 90% or more (almost completely withered)); effect on lambsquarters (O) (lambsquarters [7]; 320 g/ha): 4 (Herbicidal rate of 70% or more and less than 90%); effect on persian speedwell (R) (persian speedwell [8]; 320 g/ha): 5 (Herbicidal rate of 90% or more (almost completely withered))
C=Cc1ccc(-c2sc3ccc(F)cc3c2-c2c(O)c(C)nn(C)c2=O)cc1 [2-018]	3 (Herbicidal rate of 40% or more and less than 70%)	3 (Herbicidal rate of 40% or more and less than 70%)	3 (Herbicidal rate of 40% or more and less than 70%)	4 (Herbicidal rate of 70% or more and less than 90%)	–	–	–	–	–	–	–	–	0 (Herbicidal rate of 5% or less (almost no effect))	0 (Herbicidal rate of 5% or less (almost no effect))	0 (Herbicidal rate of 5% or less (almost no effect))	4 (Herbicidal rate of 70% or more and less than 90%)	2 (Herbicidal rate of 20% or more and less than 40%)	4 (Herbicidal rate of 70% or more and less than 90%)	4 (Herbicidal rate of 70% or more and less than 90%)	4 (Herbicidal rate of 70% or more and less than 90%)	effect on wild oat (I) (wild oat [5]; 320 g/ha): 5 (Herbicidal rate of 90% or more (almost completely withered)); effect on windgrass (L) (windgrass [6]; 320 g/ha): 5 (Herbicidal rate of 90% or more (almost completely withered)); effect on velvetleaf (M) (velvetleaf; 320 g/ha): 5 (Herbicidal rate of 90% or more (almost completely withered)); effect on lambsquarters (O) (lambsquarters [7]; 320 g/ha): 5 (Herbicidal rate of 90% or more (almost completely withered)); effect on persian speedwell (R) (persian speedwell [8]; 320 g/ha): 5 (Herbicidal rate of 90% or more (almost completely withered))
CCCSc1ccc(-c2sc3ccc(F)cc3c2-c2c(OC(=O)CCC)c(C)nn(C)c2=O)cc1 [2-249]	2 (Herbicidal rate of 20% or more and less than 40%)	4 (Herbicidal rate of 70% or more and less than 90%)	2 (Herbicidal rate of 20% or more and less than 40%)	–	3 (Herbicidal rate of 40% or more and less than 70%)	3 (Herbicidal rate of 40% or more and less than 70%)	0 (Herbicidal rate of 5% or less (almost no effect))	0 (Herbicidal rate of 5% or less (almost no effect))	0 (Herbicidal rate of 5% or less (almost no effect))	0 (Herbicidal rate of 5% or less (almost no effect))	3 (Herbicidal rate of 40% or more and less than 70%)	4 (Herbicidal rate of 70% or more and less than 90%)	–	–	–	–	–	–	–	–	herbicidal effect on H: barnyard grass (criteria 0-5) (barnyard grass; [11]): 5 (Herbicidal rate of 90% or more (almost completely withered)); herbicidal effect on I: wild oat (criteria 0-5) (wild oat [5]; [11]): 4 (Herbicidal rate of 70% or more and less than 90%); herbicidal effect on L: windgrass (criteria 0-5) (windgrass [6]; [11]): 4 (Herbicidal rate of 70% or more and less than 90%); herbicidal effect on M: velvetleaf (criteria 0-5) (velvetleaf; [11]): 5 (Herbicidal rate of 90% or more (almost completely withered)); herbicidal effect on O: lambsquarters (criteria 0-5) (lambsquarters [7]; [11]): 4 (Herbicidal rate of 70% or more and less than 90%); herbicidal effect on R: persian speedwell (criteria 0-5) (persian speedwell [8]; [11]): 5 (Herbicidal rate of 90% or more (almost completely withered))
